This is an account of results in US20230322767A1, “ARYL SUBSTITUTED PYRROLO-PYRIDINONES AND THERAPEUTIC USES THEREOF” (Bayer Aktiengesellschaft, priority 2020, published 2023).

Several values for one entry are separate records, joined by “and”; a condition that tells them apart may be missing. Equal entries are not always repeated.

Sequence of wild-type Epidermal Growth Factor Receptor (EGFR) (P00533 669-1210): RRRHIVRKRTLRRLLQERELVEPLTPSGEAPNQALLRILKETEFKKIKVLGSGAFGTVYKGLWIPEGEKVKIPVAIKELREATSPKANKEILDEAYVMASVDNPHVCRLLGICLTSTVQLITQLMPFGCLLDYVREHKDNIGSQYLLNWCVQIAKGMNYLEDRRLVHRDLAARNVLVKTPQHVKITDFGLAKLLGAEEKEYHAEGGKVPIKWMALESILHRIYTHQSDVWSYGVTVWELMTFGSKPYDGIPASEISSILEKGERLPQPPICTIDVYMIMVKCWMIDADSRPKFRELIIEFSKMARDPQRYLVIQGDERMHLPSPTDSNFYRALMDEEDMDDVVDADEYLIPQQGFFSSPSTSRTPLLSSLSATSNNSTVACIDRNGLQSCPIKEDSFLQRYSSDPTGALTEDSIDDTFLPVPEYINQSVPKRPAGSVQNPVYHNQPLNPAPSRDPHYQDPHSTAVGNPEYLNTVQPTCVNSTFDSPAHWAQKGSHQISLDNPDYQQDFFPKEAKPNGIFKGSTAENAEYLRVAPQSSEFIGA

The first experiment has as its target wild-type Epidermal Growth Factor Receptor (EGFR) (Homo sapiens (Human), UniProt P00533). Kind of experiment: WT-EGFR Kinase Assay (TR-FRET, 2 mM ATP). The experiment is classed as biochemical. The note with it: EGFR Wildtyp 2 mM ATP IC50 [mol/l] (median), median or individual measurements. An excerpt: Inhibitory activity of compounds of the present invention against wild-type Epidermal Growth Factor Receptor (EGFR) was quantified employing the TR-FRET based EGFR assay as described in the following paragraphs.
Recombinant fusion protein of N-terminal Glutathion-S-Transferase (GST) and a fragment of human EGFR (amino acids R669 to A1210), expressed in Sf9 insect cells and purified via affinity chromatography using Glutathion Sepharose as described above, was used as kinase. As substrate for the kinase reaction the biotinylated peptide biotin-Ahx-[…] (C-terminus in amide form) was used which can be purchased e.g. form the company Biosynthan GmbH (Berlin-Buch, Germany).
For the assay 50 nl of a 100 fold concentrated solution of the test compound in DMSO was pipetted into either a black low volume 384 well microtiter plate or a black 1536 well microtiter plate (both Greiner Bio-One, Frickenhausen, Germany), 2 μL of a solution of EGFR in aqueous assay buffer [50 mM Hepes pH 7.0, 10 mM MgCl2, 1 mM dithiothreitol, 0.5 mM EGTA, 0.3 mM activated sodium ortho-vanadate, 0.005% (w/v) bovine serum albumin, 0.005% (v/v) Tween-20] were added and the mixture was incubated for 15 min at 22° C. to allow pre-binding of the test compounds to the enzyme before the start of the kinase reaction. […] The concentration of EGFR was adjusted depending of the activity of the enzyme lot and was chosen appropriate to have the assay in the linear range, typical concentration was […]. The reaction was stopped by the addition of 3 μL of a solution of HTRF detection reagents (83.3 nM streptavidine-XL665 [Cisbio Bioassays, Codolet, France] and 1.67 nM PT66-Tb-Cryptate, a terbium-cryptate labelled anti-phospho-tyrosine antibody from Cisbio Bioassays [instead of the PT66-Tb-cryptate PT66-Eu-Chelate from Perkin Elmer can also be used]) in an aqueous EDTA-solution (133.3 mM EDTA, 0.2% (w/v) bovine serum albumin in 50 mM HEPES pH 7.5).
The resulting mixture was incubated 1 h at 22° C. to allow the binding of the biotinylated phosphorylated peptide to the streptavidine-XL665 and the PT66-Tb-Cryptate. Subsequently the amount of phosphorylated substrate was evaluated by measurement of the resonance energy transfer from the PT66-Tb-Cryptate to the streptavidine-XL665. Therefore, the fluorescence emissions at 620 nm and 665 nm after excitation at 337 nm were measured in a HTRF reader, e.g. a Pherastar (BMG Labtechnologies, Offenburg, Germany) or a Viewlux (Perkin-Elmer). The ratio of the emissions at 665 nm and at 622 nm was taken as the measure for the amount of phosphorylated substrate.
Consider `CN1CC(CC2CC2)c2[nH]c(-c3ccnc(NC(=O)Cc4ccc(F)cc4)c3)c(-c3ccc(F)cc3)c2C1=O` (racemic) [Example 061, N-{4-[7-(cyclopropylmethyl)-3-(4-fluorophenyl)-5-methyl-4-oxo-4,5,6,7-tetrahydro-1H-pyrrolo[3,2-c]pyridin-2-yl]pyridin-2-yl}-2-(4-fluorophenyl)acetamide], for which the IC50 is 0.818 µM.

Take `CC(C(=O)Nc1cc(-c2[nH]c3c(CC4CC4)cn(C)c(=O)c3c2-c2ccc(F)cc2)ccn1)c1ccc(F)cc1` (racemic) [Example 063, N-{4-[7-(cyclopropylmethyl)-3-(4-fluorophenyl)-5-methyl-4-oxo-4,5-dihydro-1H-pyrrolo[3,2-c]pyridin-2-yl]pyridin-2-yl}-2-(4-fluorophenyl)propanamide]: the IC50 was greater than 20 µM.

In the case of `Cn1ccc2[nH]c(-c3ccnc(NC(=O)C(CC(F)F)c4ccc(F)cc4)c3)c(-c3ccccc3)c2c1=O` (single isomer, unassigned) [Example 007, 4,4-difluoro-2-(4-fluorophenyl)-N-[4-(5-methyl-4-oxo-3-phenyl-4,5-dihydro-1H-pyrrolo[3,2-c]pyridin-2-yl)pyridin-2-yl]butanamide], the IC50 is 11.8 µM and 13.4 µM.

As for `Cn1ccc2[nH]c(-c3ccnc(NC(=O)C(CC(F)F)c4ccc(F)cc4)c3)c(-c3ccccc3)c2c1=O` (single isomer, unassigned) [Example 008, 4,4-difluoro-2-(4-fluorophenyl)-N-[4-(5-methyl-4-oxo-3-phenyl-4,5-dihydro-1H-pyrrolo[3,2-c]pyridin-2-yl)pyridin-2-yl]butanamide], the IC50 is 7.82 µM and 7.83 µM and > 20 µM (2×).

Compound `CN1CCc2[nH]c(-c3ccnc(NC(=O)C(CC(F)F)c4ccc(F)cc4)c3)c(-c3cccnc3)c2C1=O` (single isomer, unassigned) [Example 010, 4,4-difluoro-2-(4-fluorophenyl)-N-{4-[5-methyl-4-oxo-3-(pyridin-3-yl)-4,5,6,7-tetrahydro-1H-pyrrolo[3,2-c]pyridin-2-yl]pyridin-2-yl}butanamide] returned an IC50 greater than 20 µM.

`Cn1cc(CC(F)(F)F)c2[nH]c(-c3ccnc(NC(=O)C(CC(F)F)c4ccc(F)cc4)c3)c(-c3ccc(F)cc3)c2c1=O` (single isomer, unassigned) [Example 027, 4,4-difluoro-2-(4-fluorophenyl)-N-{4-[3-(4-fluorophenyl)-5-methyl-4-oxo-7-(2,2,2-trifluoroethyl)-4,5-dihydro-1H-pyrrolo[3,2-c]pyridin-2-yl]pyridin-2-yl}butanamide] gave an IC50 greater than 20 µM.

`Cn1cc(CC(F)(F)F)c2[nH]c(-c3ccnc(NC(=O)C(CC(F)F)c4ccc(F)cc4)c3)c(-c3ccc(F)cc3)c2c1=O` (single isomer, unassigned) [Example 028, 4,4-difluoro-2-(4-fluorophenyl)-N-{4-[3-(4-fluorophenyl)-5-methyl-4-oxo-7-(2,2,2-trifluoroethyl)-4,5-dihydro-1H-pyrrolo[3,2-c]pyridin-2-yl]pyridin-2-yl}butanamide] yielded an IC50 greater than 5.71 µM.

In turn, `CC1(C)CNC(=O)c2c1[nH]c(-c1ccnc(NC(=O)C(CC(F)F)c3ccc(F)cc3)c1)c2-c1ccccc1` (single isomer, unassigned) [Example 044, N-[4-(7,7-dimethyl-4-oxo-3-phenyl-4,5,6,7-tetrahydro-1H-pyrrolo[3,2-c]pyridin-2-yl)pyridin-2-yl]-4,4-difluoro-2-(4-fluorophenyl)butanamide] showed an IC50 greater than 20 µM.

For `CC(C(=O)Nc1cc(-c2[nH]c3c(c2-c2ccccc2)C(=O)NCC3(C)C)ccn1)c1ccc(F)cc1` (single isomer, unassigned) [Example 047, N-[4-(7,7-dimethyl-4-oxo-3-phenyl-4,5,6,7-tetrahydro-1H-pyrrolo[3,2-c]pyridin-2-yl)pyridin-2-yl]-2-(4-fluorophenyl)propanamide], the IC50 is greater than 20 µM.

`CC(C(=O)Nc1cc(-c2[nH]c3c(CC(F)(F)F)cn(C)c(=O)c3c2-c2ccccc2)ccn1)c1ccc(F)cc1` (single isomer, unassigned; (+)) [Example 015, (+)-2-(4-fluorophenyl)-N-{4-[5-methyl-4-oxo-3-phenyl-7-(2,2,2-trifluoroethyl)-4,5-dihydro-1H-pyrrolo[3,2-c]pyridin-2-yl]pyridin-2-yl}propanamide] displayed an IC50 of 1.91 µM.

The experiment is the same for the next values; noted with them: read-out: EGFR Wildtyp 2 mM ATP IC50 [mol/l] (median), median or individual measurements.
On to `CN1CCc2[nH]c(-c3ccnc(NC(=O)C(CC(F)F)c4ccc(F)cc4)c3)c(-c3cccnc3)c2C1=O` (single isomer, unassigned) [Example 011, 4,4-difluoro-2-(4-fluorophenyl)-N-{4-[5-methyl-4-oxo-3-(pyridin-3-yl)-4,5,6,7-tetrahydro-1H-pyrrolo[3,2-c]pyridin-2-yl]pyridin-2-yl}butanamide], for which the IC50 was greater than 20 µM.

As to `CC1(C)CNC(=O)c2c1[nH]c(-c1ccnc(NC(=O)C(CC(F)F)c3ccc(F)cc3)c1)c2-c1ccccc1` (single isomer, unassigned) [Example 045, N-[4-(7,7-dimethyl-4-oxo-3-phenyl-4,5,6,7-tetrahydro-1H-pyrrolo[3,2-c]pyridin-2-yl)pyridin-2-yl]-4,4-difluoro-2-(4-fluorophenyl)butanamide], the IC50 is greater than 20 µM.

`CC(C(=O)Nc1cc(-c2[nH]c3c(c2-c2ccccc2)C(=O)NCC3(C)C)ccn1)c1ccc(F)cc1` (single isomer, unassigned) [Example 048, N-[4-(7,7-dimethyl-4-oxo-3-phenyl-4,5,6,7-tetrahydro-1H-pyrrolo[3,2-c]pyridin-2-yl)pyridin-2-yl]-2-(4-fluorophenyl)propanamide]: the IC50 was greater than 20 µM.

Consider `Cn1cc(CC(F)(F)F)c2[nH]c(-c3ccnc(NC(=O)C(CC(F)F)c4ccc(F)cc4)c3)c(-c3ccccc3)c2c1=O` (single isomer, unassigned; (+)) [Example 020, (+)-4,4-difluoro-2-(4-fluorophenyl)-N-{4-[5-methyl-4-oxo-3-phenyl-7-(2,2,2-trifluoroethyl)-4,5-dihydro-1H-pyrrolo[3,2-c]pyridin-2-yl]pyridin-2-yl}butanamide], for which the IC50 was greater than 20 µM.

`CC(C(=O)Nc1cc(-c2[nH]c3c(CC(F)(F)F)cn(C)c(=O)c3c2-c2ccc(F)cc2)ccn1)c1ccc(F)cc1` (single isomer, unassigned; (+)) [Example 024, (+)-2-(4-fluorophenyl)-N-{4-[3-(4-fluorophenyl)-5-methyl-4-oxo-7-(2,2,2-trifluoroethyl)-4,5-dihydro-1H-pyrrolo[3,2-c]pyridin-2-yl]pyridin-2-yl}propanamide]: the IC50 is greater than 20 µM.

With `Cc1cn(C)c(=O)c2c(-c3ccc(F)cc3)c(-c3ccnc(NC(=O)C(C)c4ccc(F)cc4)c3)[nH]c12` (single isomer, unassigned; (+)) [Example 032, (+)-2-(4-fluorophenyl)-N-{4-[3-(4-fluorophenyl)-5,7-dimethyl-4-oxo-4,5-dihydro-1H-pyrrolo[3,2-c]pyridin-2-yl]pyridin-2-yl}propanamide], the IC50 is greater than 20 µM.

For `Cc1cn(C)c(=O)c2c(-c3ccc(F)cc3)c(-c3ccnc(NC(=O)C(CC(F)F)c4ccc(F)cc4)c3)[nH]c12` (single isomer, unassigned; (+)) [Example 036, (+)-4,4-difluoro-2-(4-fluorophenyl)-N-{4-[3-(4-fluorophenyl)-5,7-dimethyl-4-oxo-4,5-dihydro-1H-pyrrolo[3,2-c]pyridin-2-yl]pyridin-2-yl}butanamide], the IC50 is greater than 20 µM.
